# Assay results reported in US9777037B2, “Neurosteroid compounds” (BIONATURE E. A. LTD., priority 2007, dated 2017).
# Experiments:
# [1] = test system: DHEA specific membrane receptors; assay: [3H]DHEA competition binding on isolated PC12 cell membranes; design: species or system rat
# Protocol: PC12 rat sympathoadrenal cells were cultured in 225 cm^2 flasks and, after washing twice with PBS, they were detached from the flasks by vigorous shaking. After a centrifugation at 1500 g, they were homogenized by sonication, in a 50 mM Tris-HCl buffer pH 7.4 at 4° C., containing freshly added protease inhibitors (1 mM PMSF and 1 μg/ml aprotinin). Unbroken cells were removed by centrifugation at 1500 g (10 min at 4° C.), and membranes were collected by centrifuging at 102,000 g for 1 hr at 4° C. Membranes were washed once with Tris-HCl, briefly acidified at 4° C. (for 3 min) with 50 mM glycine (pH 5.0), and re-suspended in the same buffer. Protein content was assayed by the method of Bradford, using reagents from Bio-Rad (Hercules, Calif.). Membranes (at a final concentration of 2 mg/ml) were incubated with 5 nM [^3H]DHEA, in the absence (to determine the total binding) or presence of unlabeled neurosteroids and their synthetic spiro analogs, at concentrations varying from 10^−12 to 10^−6 M and at a final volume of 100 μl, in Tris-HCl buffer (50 mM, pH 7.4). Following a […] incubation in a water bath, at 37° C., membranes were collected on GF/B filters, prewet in 0.5% PEI solution at 4° C. The filters were washed three times with ice-cold Tris-HCl, dried, supplemented with scintillation medium (Sigma Hellas, Athens, Greece) and counted in a β-scintillation counter (Perkin Elmer, Foster City, Calif.) with 60% efficiency for Tritium.
# Ishikawa cells = assay: Alkaline phosphatase activity of Ishikawa cells, estrogen agonism/antagonism; type: cell-based, human
# Description: Treatment of postmenopausal syndromes with 17β-estradiol (E2) is associated with a higher risk of developing breast and/or endometrial cancer (Arch Intern Med. 166, 1027 (2006)). E2 stimulation of the proliferation of cancer cells is driven by estrogen receptor alpha (ERα) (Mol. Endocrinol. 13, 969 (1999)). Since BNN-50, BNN-93 and BNN-124 may form two hydrogen bonds with an O—O distance of 10.9-12.5 Å and thus may fit the ERα binding cavity (Chem. Biol. 11, 397 (2004)), it was imperative to examine the estrogen agonism/antagonism properties of these neurosteroids using human adenocarcinoma cells from breast (MCF-7 cells) and uterus (Ishikawa cells) as reporters. Full estrogen agonism (E2 at ≧0.1 nM) and non-agonism (vehicle only) controls served to classify the neurosteroids as super, full, partial, weak and marginal agonists depending on whether their estrogenic efficacy was >100, 76-100, 26-75, 10-25 and 1-10% of that of E2 (set equal to 100). Similarly, full antagonism of the effect of E2 (at 0.1 nM) by ICI 182, 780 (at ≧10 nM) and non-antagonism (vehicle only) controls served to classify the neurosteroids as full, partial, weak and marginal antagonists depending on whether their suppression of the effect of E2 was 76-100, 26-75, 10-25 and 1-10% of that of ICI 182, 780. Differences between control and neurosteroid-treated cells were assessed using one-way ANOVA. […]
# [2] = test system: Neural-crest derived PC12 cells; assay: APOPercentage apoptosis assay, serum-deprivation induced apoptosis of PC12 cells; type: cell-based, rat; details: Rattus norvegicus, PC-12, absence of serum 12 hours, ApoPercentage assay (FIG. 2), read-out: IC50 of anti-apoptotic, cytoprotective effect
# Protocol: Neural-crest derived PC12 cells were maintained in culture at 5% CO2, at 37° C., in RPMI 1640 medium containing 2 mM L-glutamine, 15 mM HEPES, 100 units/ml penicillin, 0.1 mg/ml streptomycin, 10% horse serum, and 5% foetal calf serum. Serum free medium was supplemented with 1% bovine serum albumin (BSA). Different steroids, used at various concentrations, were initially diluted in ethanol. The final concentration of ethanol in each well, including controls was 0.01%. Conjugate DHEA-BSA was initially diluted in Phosphate Buffer Saline (PBS).
# Cells were cultured in the absence of serum for 12 hours, supplemented with DHEA and various synthetic spiro neurosteroids at 10 nM. Cell apoptosis was quantitated with two different methods: The APOPercentage Apoptosis Assay (Biocolor Ltd., Belfast, N. Ireland) was used to quantify apoptosis, according to the manufacturer's instructions. Apoptosis was quantified following cell lysis by measuring the dye incorporated in apoptotic cells at 550 nm (reference filter 620 nm) using a colour filter microplate colorimeter (Dynatech MicroElisa reader, Chantilly, Va.) (see FIGS. 1 and 2). FACS Analysis: FACS analysis of apoptotic cells was performed according to our protocol (Proc Natl Acad Sci USA 101,8209 (2004)). Flow cytometry was performed with FACScan (Becton Dickinson, Heidelberg, Germany) and the results were analysed with the FACScan and Cell Quest softwares (see FIG. 3).
compound,measurement,setting,value
"C[C@]12CC[C@H](O)CC1=CCC1C2CC[C@@]2(C)C1CC[C@@]21CO1 (stereo partly drawn) [BNN-50, 17β-spiro-[5-androsten-17,2′-oxiran]-3β-ol]",displacement of specific [3H]DHEA binding,"[1]; at 1 μM, PC12 cell membranes",approximately 60%
same,Kd,"[1]; isolated PC12 cell membranes, 5 nM [3H]DHEA (FIG. 5)",0.016 nM
same,"E2 agonism (at 1 uM), Ishikawa AlkP",Ishikawa cells,non-significant
same,"E2 antagonism (at 1 uM), Ishikawa AlkP",Ishikawa cells; against E2 at 0.1 nM,"marginal (1-10% of that of ICI 182, 780)"
same,IC50,[2],0.088 nM
